Earlier results as cited in patent US12253499B2, “Thin-layer chromatography system and method for assessing analyte concentrations in samples” (UCL BUSINESS LTD, priority 2017, dated 2025).
Like-named read-outs stand apart in the source and are kept apart here.

Key:
[1] = for Therapeutic window / Therapeutic window (μg/mL): Leading candidate drugs for TDM
[2] = inter-individual variability
topoisomerase I = target: T1, topoisomerase I (Homo sapiens, UniProt P11387); conditions: relative to Irinotecan
T1 sequence (P11387 1-765): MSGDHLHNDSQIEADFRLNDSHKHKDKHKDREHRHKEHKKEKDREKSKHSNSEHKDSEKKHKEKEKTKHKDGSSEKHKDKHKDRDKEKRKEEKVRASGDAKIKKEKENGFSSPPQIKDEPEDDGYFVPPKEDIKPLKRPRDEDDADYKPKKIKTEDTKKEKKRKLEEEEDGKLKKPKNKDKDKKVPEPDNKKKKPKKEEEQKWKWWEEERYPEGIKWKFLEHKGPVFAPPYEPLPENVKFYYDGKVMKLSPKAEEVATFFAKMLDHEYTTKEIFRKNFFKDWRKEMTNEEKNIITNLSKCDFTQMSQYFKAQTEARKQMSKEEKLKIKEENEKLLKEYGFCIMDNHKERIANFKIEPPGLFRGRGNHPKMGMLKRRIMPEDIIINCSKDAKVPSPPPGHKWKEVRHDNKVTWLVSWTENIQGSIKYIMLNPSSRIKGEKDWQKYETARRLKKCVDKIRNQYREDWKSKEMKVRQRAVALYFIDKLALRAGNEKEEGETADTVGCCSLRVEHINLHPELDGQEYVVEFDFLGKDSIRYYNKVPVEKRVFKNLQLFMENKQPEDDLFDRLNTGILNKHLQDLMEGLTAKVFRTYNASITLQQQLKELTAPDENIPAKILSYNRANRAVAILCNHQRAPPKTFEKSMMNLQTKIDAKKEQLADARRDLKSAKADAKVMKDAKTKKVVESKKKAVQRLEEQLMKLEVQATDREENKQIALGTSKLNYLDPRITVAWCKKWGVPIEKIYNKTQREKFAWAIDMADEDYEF

[3] = relative to Irinotecan
[4] = Table D, In-depth list of candidate drugs
[5] = Table D, In-depth list of candidate drugs, given as daily dose

O=c1[nH]cc(F)c(=O)[nH]1 [5-fluoruoracil, 5-fluorouracil]
Window [1, 4]: 2000 to 3000 µg/mL
Therapeutic window ([1]; Table D): 2000 to 3000 µg/mL
Plasma drug concentrations vary [2]: ≤ 100 fold

NCC[C@H](O)C(=O)N[C@@H]1C[C@H](N)[C@@H](O[C@H]2O[C@H](CN)[C@@H](O)[C@H](O)[C@H]2O)[C@H](O)[C@H]1O[C@H]1O[C@H](CO)[C@@H](O)[C@H](N)[C@H]1O [Amikacin]
Window [1, 4]: 5 to 15 µg/mL

CCCCc1oc2ccccc2c1C(=O)c1cc(I)c(OCCN(CC)CC)c(I)c1 [Amiodarone]
Window [1, 4]: 0.5 to 2 µg/mL
Therapeutic window (μg/mL) ([1]; Table D): 0.5-2^ μg/mL

CS(=O)(=O)OCCCCOS(C)(=O)=O [Busulfan]
Window [1, 4]: 0.9 to 1 µg/mL

NC(=O)N1c2ccccc2C=Cc2ccccc21 [Carbamazepine]
Window [1, 4]: 5 to 10 µg/mL

O=C(O)c1cn(C2CC2)c2cc(N3CCNCC3)c(F)cc2c1=O [Ciprofloxacin]
Window [1, 4]: 0.1 to 8.3 µg/mL
Therapeutic window ([1]; Table D): 0.1 to 8.3 µg/mL

CN1C(=O)CC(=O)N(c2ccccc2)c2cc(Cl)ccc21 [Clobazam]
Window [1, 4]: Varies, 0.2-5 ug/mL

O=C1CN=C(c2ccccc2Cl)c2cc([N+](=O)[O-])ccc2N1 [Clonazepam]
Window [1, 4]: 20 to 80 µg/mL

CC(C)N(CCC(C(N)=O)(c1ccccc1)c1ccccn1)C(C)C (stereo not drawn) [Disopyramide]
Window [1, 4]: 2 to 4 µg/mL

COc1cccc2c1C(=O)c1c(O)c3c(c(O)c1C2=O)C[C@@](O)(C(=O)CO)C[C@@H]3O[C@H]1C[C@H](N)[C@H](O)[C@H](C)O1 [Doxorubicin]
Therapeutic window ([1]; Table D): 10 to 58 µg/mL

CCC1(C)CC(=O)NC1=O (stereo not drawn) [Ethosuximide]
Window [1, 4]: 40 to 100 µg/mL

COc1cc([C@@H]2c3cc4c(cc3[C@@H](O[C@@H]3O[C@@H]5CO[C@@H](C)O[C@H]5[C@H](O)[C@H]3O)[C@H]3COC(=O)[C@H]23)OCO4)cc(OC)c1O [Etopisode]
Therapeutic window ([1]; Table D): 1 to 10 µg/mL

NC(=O)OCC(COC(N)=O)c1ccccc1 [Felbamate]
Window [1, 4]: 50 to 110 µg/mL

NCC1(CC(=O)O)CCCCC1 [Gabapentin]
Window [1, 4]: 2 to 20 µg/mL

CCC(C)n1ncn(-c2ccc(N3CCN(c4ccc(OCC5COC(Cn6cncn6)(c6ccc(Cl)cc6Cl)O5)cc4)CC3)cc2)c1=O (stereo not drawn) [Itraconazole]
Window [1, 4]: 0.5 to 17 µg/mL
Therapeutic window ([1]; Table D): 0.5 to 17 µg/mL

Nc1nnc(-c2cccc(Cl)c2Cl)c(N)n1 [Lamotrigine]
Window [1, 4]: 2.5 to 15 µg/mL

CC[C@@H](C(N)=O)N1CCCC1=O [Levetiracetam]
Window [1, 4]: 10 to 40 µg/mL
Window ([1]; Table D, In-depth list of candidate drugs, listed as Leveltiracetam): 20 to 40 µg/mL

CCN(CC)CC(=O)Nc1c(C)cccc1C [Lidocaine]
Window [1, 4]: 1.5 to 5 µg/mL

CC(=O)NC[C@H]1CN(c2ccc(N3CCOCC3)c(F)c2)C(=O)O1 [Linezolid]
Window [1, 4]: 1.75 to 7.53 µg/mL
Therapeutic window ([1]; Table D): 1.8 to 7.5 µg/mL

[Li] [Lithium]
Window [1, 4]: 0.6-1.2 mEq/L

Cc1cccc(C)c1OCC(C)N (stereo not drawn) [Mexiletine]
Window [1, 4]: 0.5 to 2.5 µg/mL
Therapeutic window ([1]; Table D): 0.5 to 2.5 µg/mL

COc1c(C)c2c(c(O)c1C/C=C(\C)CCC(=O)O)C(=O)OC2 [Mycophenolic Acid]
Window [1, 4]: 1 to 4 µg/mL
Therapeutic window ([1]; Table D): 1 to 4 µg/mL

CCN(CC)CCNC(=O)c1ccc(NC(C)=O)cc1 [NAPA]
Window [1, 4]: 4 to 8 µg/mL
Therapeutic window ([1]; Table D): 4 to 8 µg/mL

O=C1CN=C(c2ccccc2)c2cc([N+](=O)[O-])ccc2N1 [Nitrazepam]
Window [1, 4]: 0.03 to 0.1 µg/mL

C1CCC(C(CC2CCCCN2)C2CCCCC2)CC1 (stereo not drawn) [Perhexeline]
Window [1, 4]: 0.3 to 4 µg/mL

O=C1NC(=O)C(c2ccccc2)(c2ccccc2)N1 [Phenytoin]
Window [1, 4]: 10 to 20 µg/mL

CC[C@@H]([C@H](C)O)n1ncn(-c2ccc(N3CCN(c4ccc(OC[C@@H]5CO[C@@](Cn6cncn6)(c6ccc(F)cc6F)C5)cc4)CC3)cc2)c1=O [Posaconazole]
Window [1, 4]: ~0.7 µg/mL
Therapeutic window (μg/mL) ([1]; Table D): Maintain at 0.7 μg/mL

CCC1(c2ccccc2)C(=O)NCNC1=O [Primidone]
Window [1, 4]: 5 to 12 µg/mL

C=C[C@H]1C[N@@]2CC[C@H]1C[C@@H]2[C@@H](O)c1ccnc2ccc(OC)cc12 [Quinidine]
Window [1, 4]: 2 to 5 µg/mL
Therapeutic window ([1]; Table D): 2 to 5 µg/mL

CCc1c2c(nc3ccc(O)cc13)-c1cc3c(c(=O)n1C2)COC(=O)[C@]3(O)CC [SN-38, 7-ethyl-10-hydroxycampto-thecin]
more potent at inhibiting topoisomerase I than the parent Irinotecan (topoisomerase I): up to 1,000
concentration of SN-38 lower than that of Irinotecan [3]: over 30 times

O=C(O)c1ccccc1O [Salicylate]
Window [1, 4]: 15 to 30 µg/mL
Therapeutic window ([1]; Table D): 15 to 30 µg/mL

CO[C@H]1C[C@@H]2CC[C@@H](C)[C@@](O)(O2)C(=O)C(=O)N2CCCC[C@H]2C(=O)O[C@H]([C@H](C)C[C@@H]2CC[C@@H](O)[C@H](OC)C2)CC(=O)[C@H](C)/C=C(\C)[C@@H](O)[C@@H](OC)C(=O)[C@H](C)C[C@H](C)/C=C/C=C/C=C/1C [Sirolimus]
Window [1, 4]: 0.005 to 0.01 µg/mL

C=CC[C@@H]1/C=C(\C)C[C@H](C)C[C@H](OC)[C@H]2O[C@@](O)(C(=O)C(=O)N3CCCC[C@H]3C(=O)O[C@H](/C(C)=C/[C@@H]3CC[C@@H](O)[C@H](OC)C3)[C@H](C)[C@@H](O)CC1=O)[C@H](C)C[C@@H]2OC [Tacrolimus]
Window [1, 4]: 5 to 20 µg/mL

Cn1c(=O)c2[nH]cnc2n(C)c1=O [Theophylline]
Window [1, 4]: 5 to 15 µg/mL

Cc1ccsc1C(=CCCN1CCC[C@@H](C(=O)O)C1)c1sccc1C [Tiagibine]
Window [1, 4]: 0.02 to 0.2 µg/mL

NC[C@H]1O[C@H](O[C@H]2[C@H](O)[C@@H](O[C@H]3O[C@H](CO)[C@@H](O)[C@H](N)[C@H]3O)[C@H](N)C[C@@H]2N)[C@H](N)C[C@@H]1O [Tobramicin]
Window [1, 4]: 2 to 10 µg/mL

CC1(C)O[C@@H]2[C@@H](CO[C@@]3(COS(N)(=O)=O)OC(C)(C)O[C@@H]23)O1 [Topiramate]
Window [1, 4]: 2 to 10 µg/mL

CCCC(CCC)C(=O)O [Valproic acid]
Window [1, 4]: 50 to 125 µg/mL

CN[C@H](CC(C)C)C(=O)N[C@H]1C(=O)N[C@@H](CC(N)=O)C(=O)N[C@H]2C(=O)N[C@H]3C(=O)N[C@H](C(=O)N[C@H](C(=O)O)c4cc(O)cc(O)c4-c4cc3ccc4O)[C@H](O)c3ccc(c(Cl)c3)Oc3cc2cc(c3O[C@@H]2O[C@H](CO)[C@@H](O)[C@H](O)[C@H]2O[C@H]2C[C@](C)(N)[C@H](O)[C@H](C)O2)Oc2ccc(cc2Cl)[C@H]1O [Vancomycin]
Window [1, 4]: 10 to 20 µg/mL

C=CC(N)CCC(=O)O (stereo not drawn) [Vigabratin]
Window [1, 4]: 0.8 to 36 µg/mL

NS(=O)(=O)Cc1noc2ccccc12 [Zonisamide]
Window [1, 4]: 10 to 40 µg/mL

Cc1nc(Nc2ncc(C(=O)Nc3c(C)cccc3Cl)s2)cc(N2CCN(CCO)CC2)n1 [dasatinib]
Window [1, 4]: ~0.05 µg/mL

C#Cc1cccc(Nc2ncnc3cc(OCCOC)c(OCCOC)cc23)c1 [erlotinib]
Window [1, 5]: 100 to 150 mg/day

CNC(=O)c1cc(Oc2ccc(NC(=O)Nc3ccc(Cl)c(C(F)(F)F)c3)cc2)ccn1 [sorafenib]
Window [1, 5]: 800 mg/day

Adalimumab
Window ([1]; in vivo): 3.5 to 7 µg/mL

Certolizumab pegol: antibody for autoimmune diseases
Window ([1]; in vivo): 3 to 84 µg/mL

Infliximab: antibody for autoimmune diseases
Window ([1]; in vivo): ~3.8 µg/mL

Teicoplanin
Window [1, 4]: 10 to 60 µg/mL

retuximab: cancer drug listed in Table D; not natively fluorescent, requires label
Window ([1]; in vivo): Maintain at 375 mg/m^2
